Measured values from patent US9732071B2, “Compounds useful as modulators of TRPM8” (Senomyx, Inc., priority 2015, dated 2017).
pEC50: −log10 of the molar value. Converted amounts (≈) assume the structure as drawn. Read-outs that look alike come from different tables or passages of the source.

Columns and labels:
hTRPM8 = molecular target: T1, hTRPM8 (Homo sapiens, UniProt Q7Z2W7); assay: hTRPM8 agonist assay in a mammalian cell line stably expressing hTRPM8; type: cell-based
T1 construct: expressed in transfected cells
T1 sequence (Q7Z2W7 whole entry): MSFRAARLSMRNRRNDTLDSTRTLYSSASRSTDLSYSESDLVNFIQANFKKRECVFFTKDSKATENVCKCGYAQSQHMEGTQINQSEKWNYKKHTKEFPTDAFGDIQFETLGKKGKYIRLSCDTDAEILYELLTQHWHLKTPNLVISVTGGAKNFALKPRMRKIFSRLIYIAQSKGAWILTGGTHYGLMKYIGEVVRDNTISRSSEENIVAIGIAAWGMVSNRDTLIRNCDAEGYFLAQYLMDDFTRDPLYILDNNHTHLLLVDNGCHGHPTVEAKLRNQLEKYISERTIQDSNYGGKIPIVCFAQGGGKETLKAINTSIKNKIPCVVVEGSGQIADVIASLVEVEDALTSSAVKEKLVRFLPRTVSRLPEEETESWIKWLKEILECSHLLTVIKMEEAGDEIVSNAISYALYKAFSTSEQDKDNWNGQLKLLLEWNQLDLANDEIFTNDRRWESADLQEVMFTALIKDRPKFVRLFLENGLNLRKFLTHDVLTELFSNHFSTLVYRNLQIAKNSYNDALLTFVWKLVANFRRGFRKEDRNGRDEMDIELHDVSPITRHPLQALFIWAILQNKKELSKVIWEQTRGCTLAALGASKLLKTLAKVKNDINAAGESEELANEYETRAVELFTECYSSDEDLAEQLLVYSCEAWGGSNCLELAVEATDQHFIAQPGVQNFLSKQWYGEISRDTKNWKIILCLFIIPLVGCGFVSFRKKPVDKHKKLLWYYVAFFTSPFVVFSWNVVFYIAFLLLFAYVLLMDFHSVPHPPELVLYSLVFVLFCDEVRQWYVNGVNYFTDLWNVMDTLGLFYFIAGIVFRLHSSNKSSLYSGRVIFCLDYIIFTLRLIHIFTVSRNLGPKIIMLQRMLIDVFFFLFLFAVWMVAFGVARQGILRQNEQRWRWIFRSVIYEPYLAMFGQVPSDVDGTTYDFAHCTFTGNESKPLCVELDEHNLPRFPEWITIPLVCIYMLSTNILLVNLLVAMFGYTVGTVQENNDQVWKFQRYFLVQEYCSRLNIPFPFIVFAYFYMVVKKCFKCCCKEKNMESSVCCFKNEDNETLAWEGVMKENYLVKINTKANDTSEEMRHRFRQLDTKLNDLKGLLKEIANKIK
Description: A mammalian cell line derivative which stably expresses hTRPM8 was used in biological assays in association with testing the present compounds with cool-tasting or -feeling properties (Servant et al. US 2007/0259354 A1 and references cited therein). Typical compound concentrations tested were 100 μM, 30 μM, 10 μM, 3.3 μM, 1.1 μM, 0.37 μM, 0.12 μM, 0.04 μM, 0.01 μM and more dilutions for very potent compounds. The present compounds have shown strong activity as agonists of hTRPM8. […] For the sake of comparison, the EC50 of Comparative Compound 1, which was previously disclosed in U.S. 2013/0324557 A1 and has the structure

Solubility studies = type: physicochemical
Description: For the sake of comparison, the solubility of Comparative Compound 1, which was previously disclosed in U.S. 2013/0324557 A1, was also measured.

panelists = assay: Cool Line Scale Test (sensory study, cooling intensity versus 45 μM WS-3); type: in vivo, human; details: for Sensory Results: cooling compared with 45 μM WS-3: 5 μM compound, Low Sodium Buffer pH ~7.1, 0.1% ethanol, 15 point line scale; for lingering effect: cool line scale test
Description: A typical sensory study is described below followed by Table 5 summarizing sensory results of Compounds 101-105.
All samples made with Low Sodium Buffer (LSB) pH ˜7.1 and contain 0.1% ethanol.
Compounds are rated on a 15 point line scale where 45 μM WS-3 (N-Ethyl-p-menthane-3-carboxamide) is ranked as a 5 in cool intensity. In most cases, the compounds are tested to determine at what concentration the cooling intensity is equivalent to 45 μM WS-3. In each test, the panelist is presented with a 0 μM control sample, a 45 μM WS-3 control sample and the experimental compound sample and asked to rate the cooling intensity of each sample. [0218]

[1] = cell line stably expressing hTRPM8, read-out: EC50
[2] = pH 7.1, aqueous buffer, read-out: Solubility (pH 7.1)
[3] = aqueous buffer, pH 4.0, read-out: Solubility (pH 4.0)

Structure (SMILES) | pEC50 (hTRPM8; [1]) | Solubility (pH 7.1) (Solubility studies) | solubility (Solubility studies; [2]) [µM] | solubility (Solubility studies; [3]) [µM] | Sensory Results: cooling compared with 45 μM WS-3 (panelists) | lingering effect (panelists) | pEC50 (hTRPM8) | Solubility (pH 4.0) (Solubility studies; pH 4.0)
O=C(COc1ccc(F)cc1)N(Cc1cccs1)c1cc[nH]n1 [Compound 102, 2-(4-flourophenoxy)-N-(1H-pyrazol-5-yl)-N-(thiophen-2-ylmethyl)acetamide] | 7.97 | unexpectedly superior solubility | 503 (≈ 167 µg/mL) | – | – | – | – | –
Cc1ccc(OCC(=O)N(Cc2cccs2)c2ccn[nH]2)cc1 [Comparative Compound 1, reference compound] | 9.52 | – | 171 (≈ 56 µg/mL) | 106 (≈ 34.7 µg/mL) | – | – | – | –
CCc1ccc(OCC(=O)N(Cc2cccs2)c2cc[nH]n2)cc1 [Compound 104, 2-(4-ethylphenoxy)-N-(1H-pyrazol-3-yl)-N-(thiophen-2-ylmethyl)acetamide] | > 9.00 | – | – | – | significantly more cooling | unexpected lingering effect | – | –
Cc1ccc(OCC(=O)N(Cc2cccs2)c2cc[nH]n2)cc1C [Compound 105, 2-(3,4-dimethylphenoxy)-N-(1H-pyrazol-3-yl)-N-(thiophen-2-ylmethyl)acetamide] | – | – | – | – | – | unexpected lingering effect | 9.15 | –
Cc1cccc(OCC(=O)N(Cc2cccs2)c2cc[nH]n2)c1 [Compound 101, N-(1H-pyrazol-3-yl)-N-(thiophen-2-ylmethyl)-2-(m-tolyloxy)acetamide] | 8.21 | – | 152 (≈ 49.8 µg/mL) | 517 (≈ 169 µg/mL) | – | – | – | unexpectedly superior solubility
COc1ccc(OCC(=O)N(Cc2cccs2)c2cc[nH]n2)cc1 [Compound 103, 2-(4-methoxyphenoxy)-N-(1H-pyrazol-3-yl)-N-(thiophen-2-ylmethyl)acetamide] | 8.31 | unexpectedly superior solubility | 403 (≈ 138 µg/mL) | – | equivalent to the cooling 45 | unexpected lingering effect | – | –
